Results as given in patent US5399703A, “Tetrazole derivatives and drugs” (Nippon Shinyaku Company, Limited, priority 1990, dated 1995).
Read-outs that look alike come from different tables or passages of the source. Values belong to the compound of their own block, whether it stands above or below them.

Legend:
LTD4 receptor = target: T1, LTD4 receptor (Cavia porcellus, UniProt Q2NNR5); assay: Leukotriene D4 (LTD4) binding assay (3H-LTD4, guinea pig lung membrane fraction); details: for IC50: guinea pig lung membrane, 3H-LTD4, 25° C., 1 hour
T1 construct: membrane fraction prepared from the guinea pig lung; from tissue; host or cells: guinea pig lung membrane fraction
T1 sequence (Q2NNR5 1-340): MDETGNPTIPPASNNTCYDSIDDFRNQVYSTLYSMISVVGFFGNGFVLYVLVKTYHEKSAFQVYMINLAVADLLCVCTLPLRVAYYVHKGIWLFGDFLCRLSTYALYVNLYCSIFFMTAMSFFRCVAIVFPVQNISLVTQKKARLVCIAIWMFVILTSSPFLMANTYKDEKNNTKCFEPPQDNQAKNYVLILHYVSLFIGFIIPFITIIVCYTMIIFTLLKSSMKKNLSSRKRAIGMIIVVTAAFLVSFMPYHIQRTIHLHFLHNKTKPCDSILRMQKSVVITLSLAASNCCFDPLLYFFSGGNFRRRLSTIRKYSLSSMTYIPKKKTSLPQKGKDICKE
Procedure: 1) Leukotriene D4 (LTD4) binding assay
First, 0.2 pmol of ^3 H-LTD4 and 100 μg of the membrane fraction prepared from the guinea pig lung were incubated at 25° C. for 1 hour and then the reaction mixture was filtered through a glass filter. The radioactivity of ^3 H-LTD4 bound to the membrane remaining on the glass filter was determined and this value was regarded as total binding (total).
Similarly, 100 μg of the membrane fraction was incubated with 0.2 pmol of ^3 H-LTD4 in the presence of a large excess of cold LTD4 (0.1 nmol) at 25° C. for 1 hour and the radioactivity of ^3 H-LTD4 bound to the membrane was determined and regarded as nonspecific binding (NSB).
Specific binding (SB) of ^3 H-LTD4 was calculated according to expression (1).
To investigate the effect of the test substance on LTD4 receptor binding, the test substance was added at the determination of total binding and the total binding in the presence of the test substance (total') was determined. The percent inhibition was calculated according to expression (2).
(total-total')/SB×100 (2)

[1] = system: endogenous LT-induced airway contractile response in guinea pigs; assay: Effect on endogenous leukotriene (LT)-induced experimental asthma; format: in vivo; details: guinea pig; for ED50: Cavia porcellus
[2] = system: antigen-induced airway contractile response in guinea pigs; assay: Effect on experimental asthma (antigen-induced airway contractile response); format: in vivo; details: guinea pig
Procedure: (4) Effect on experimental asthma
The airway contractile response to intravenous administration of an antigen (benzylpenicilloyl-bovine serum albumin) to guinea pigs passively senstitized with anti-benzylpenicilloyl-bovine gamma globulin guinea pig serum was determined by the Konzett-Rossler method.
The test substance suspended in 0.5% methylcellulose was administered orally and 3 hours later, the airway contractile response caused by antigen-antibody reaction was determined. With the response on complete obstruction of the airway cannula with a clamp taken as 100% contraction, the maximal airway contractile response (expressed in percent) caused by antigen antibody reaction was determined. From this value, the percent inhibition, relative to the control, by the test substance was determined.

IC50 (LTD4 receptor): 180 nM
Structure (SMILES): CCCCCCOc1ccc(C(=O)Nc2ccccc2Sc2ccccc2-c2nnn[nH]2)cc1 [Example 7, N-[2-[2-(1H-Tetrazol-5-yl)phenylthio]phenyl]-4-hexyloxybenzamide]
ED50 ([2]; Cavia porcellus, po, 3 hours before antigen): 3.52 mg/kg
ED50 ([1]; po, 3 hours before antigen, read-out: Endogenous LT-induced experimental asthma p.o. ED50): 0.111 mg/kg

IC50 (LTD4 receptor): 22 nM
Structure (SMILES): CCCC/C=C/COc1ccc(C(=O)Nc2ccccc2Sc2ccccc2-c2nnn[nH]2)cc1 [Example 14, (E)-N-[2-[2-(1H-Tetrazol-5-yl)phenylthio]phenyl]-4-(2-heptenyloxy)benzamide]
Endogenous LT-induced experimental asthma p.o. inhibition (%) ([1]; at 30 mg/kg): 58.3%

IC50 (LTD4 receptor): 3340 nM
Structure (SMILES): CCCCOC(=O)COc1ccc(C(=O)Nc2ccccc2Sc2ccccc2-c2nnn[nH]2)cc1 [Example 67, Butyl 4-[2-[2-(1H-tetrazol-5-yl)phenylthio]phenylcarbamoyl]phenoxyacetate]
Experimental asthma p.o. inhibition (%) ([2]; at 10 mg/kg): 82.6%
Endogenous LT-induced experimental asthma p.o. inhibition (%) ([1]; at 0.3 mg/kg): 61.2%

IC50 (LTD4 receptor): 18200 nM
Structure (SMILES): CCN(CC)C(=O)COC(=O)COc1ccc(C(=O)Nc2ccccc2Sc2ccccc2-c2nnn[nH]2)cc1 [Example 105, N,N-Diethylcarbamoylmethyl 4-[2-[2-(1H-tetrazol-5-yl)phenylthio]phenylcarbamoyl]phenoxyacetate]
Experimental asthma p.o. inhibition (%) ([2]; at 10 mg/kg): 87.9%
Endogenous LT-induced experimental asthma p.o. inhibition (%) ([1]; at 0.3 mg/kg): 29.4%

Continued, compound first:

Structure (SMILES): CCCc1c(OCC(O)COc2ccc3c(=O)cc(C(=O)O)oc3c2CCC)ccc(C(C)=O)c1O (stereo not drawn) [C, reference compound]
IC50 (LTD4 receptor): 3820 nM
ED50 ([1]; iv, read-out: Endogenous LT-induced experimental asthma ED50 (i.v.)): 0.2 mg/kg

Structure (SMILES): O=C(Nc1ccccc1Sc1ccccc1-c1nnn[nH]1)c1ccc(OCCCCc2ccccc2)cc1 [Example 4, N-[2-[2-(1H-Tetrazol-5-yl)phenylthio]phenyl]-4-(4-phenylbutoxy)benzamide]
IC50 (LTD4 receptor): 35.8 nM
Endogenous LT-induced experimental asthma p.o. inhibition (%) ([1]; at 30 mg/kg): 30.9%

Structure (SMILES): O=C(O)COc1ccc(C(=O)Nc2ccccc2Sc2ccccc2-c2nnn[nH]2)cc1 [Example 6, 4-[2-[2-(1H-Tetrazol-5-yl)phenylthio]phenylcarbamoyl]phenoxyacetic acid]
inhibition at 10 µM (LTD4 receptor; at 10^-5 M): 28.9%
Experimental asthma p.o. inhibition (%) ([2]; at 30 mg/kg): 37.9%
Endogenous LT-induced experimental asthma p.o. inhibition (%) ([1]; at 0.1 mg/kg): 36.2%
